The values below come from ChEMBL document CHEMBL3792284, “Synthesis of triazoloquinazolinone based compounds as tubulin polymerization inhibitors and vascular disrupting agents” (Eur J Med Chem, 2016).

Holding throughout (type): functional
Assay [1] relates to SR. In words: Growth inhibition of human SR cells at 10 uM after 48 hrs by sulforhodamine B assay. Particulars: read-out: GI.
The test system of assay [2] is A549. Briefly: Growth inhibition of human A549/ATCC cells at 10 uM after 48 hrs by sulforhodamine B assay. The conditions noted are these: A549, 48 h, read-out: GI. For orientation: Sulforhodamine B stains cellular protein and so reports cell mass.
The nature of assay [3]: Growth inhibition of human HCT116 cells at 10 uM after 48 hrs by sulforhodamine B assay. Particulars: HCT-116, 48 h, read-out: GI.
Assay [4] has as its system MDA-MB-435. In words: Growth inhibition of human MDA-MB-435 cells at 10 uM after 48 hrs by sulforhodamine B assay. The conditions noted are these: MDA-MB-435, 48 h, read-out: GI.
Assay [5] is described as follows: Growth inhibition of human OVCAR3 cells at 10 uM after 48 hrs by sulforhodamine B assay. The conditions noted are these: OVCAR-3, 48 h, read-out: GI.
Assay [6] is described as follows: Growth inhibition of human Caki1 cells at 10 uM after 48 hrs by sulforhodamine B assay. The conditions noted are these: CAKI-1, 48 h, read-out: GI.
Assay [7] in a line: Growth inhibition of human COLO205 cells after 48 hrs by sulforhodamine B assay. The conditions noted are these: COLO 205, 48 h.
Assay [8] deals with U-251. Briefly: Growth inhibition of human U251 cells after 48 hrs by sulforhodamine B assay. Particulars: U-251, 48 h.
Assay [9] relates to SK-MEL-5. In words: Growth inhibition of human SK-MEL-5 cells after 48 hrs by sulforhodamine B assay. Particulars: SK-MEL-5, 48 h.
For assay [10], the system named is A498. Briefly: Growth inhibition of human A498 cells after 48 hrs by sulforhodamine B assay. The conditions noted are these: A498, 48 h.
The test system of assay [11] is NCI-H522. In words: Cytotoxicity against human NCI-H522 cells assessed as cell growth at 10 uM after 48 hrs by sulforhodamine B assay. The conditions noted are these: NCI-H522, 48 h, read-out: Activity.
The subject of assay [12] is MDA-MB-435. In words: Cytotoxicity against human MDA-MB-435 cells assessed as cell growth at 10 uM after 48 hrs by sulforhodamine B assay. Particulars: MDA-MB-435, 48 h, read-out: Activity.

Usually GI50 stands for the concentration at which growth is held to half of that of the control. Higher therefore signals lower sensitivity of the cells. On to `COc1ccc(-c2nnc3n(C)c(=O)c4ccccc4n23)cc1O`, for which the inhibition of growth at 10 µM in [1] came out at 95%; in assay [2], 82%; in assay [3], 86%; in assay [4], 100%; in assay [5] it was 100%; in assay [6] it was 66%. The concentration for 50% growth inhibition (GI50) came to 3820 nM in [7], 125 nM in [8], 59 nM in assay [9] and 6420 nM in assay [10]. Also, the growth at 10 µM in [11] worked out at 5%; in assay [12], 62%.
